# Source: patent EP4755881A1 (Wuhan Createrna Science and Technology Co., Ltd., priority 2023, dated 2025)
# Molecular target: T1, LPAR1 receptor (Homo sapiens, UniProt Q92633)
# T1 construct: expressed in transfected cells
# Assay: LPAR1 in vitro biological activity evaluation 2: HTRF cAMP kit (LANCE Ultra cAMP Kit) assay in CHO stable transfected cell line expressing the LPAR1 receptor
# Assay type: cell-based
# Conditions: Table 2, read-out: LPAR1 inhibitory activity IC50
# Description: The inhibitory effects of the compounds of the present disclosure on the LPAR1 receptor were determined using a Chinese hamster ovary (CHO) stable transfected cell line expressing the LPAR1 receptor, through the HTRF cAMP kit (LANCE® Ultra cAMP Kit).
# The CHO cell line expressing the LPAR1 receptor was cultured in F-12 medium (Gibco, 117650054) containing 10% fetal bovine serum (FBS, Avantor, 76294-180) and 0.2 mg/mL hygromycin B (Solarbio, H8080-1g) at 37°C with 5% CO2. Cell passage, recovery, and cryopreservation were performed according to conventional methods. The stable transfected cell line was cultured to 80% confluence, digested with trypsin to collect cells, counted, and then seeded at 5 µL/well in a 384-well plate (500 cells/5 µL). The 1× Stimulation Buffer was prepared according to the instructions of the kit (LANCE® Ultra cAMP Kit). 1 µL of the test compound solution (diluted to 10× with 1× Stimulation Buffer) was added to the corresponding experimental wells, followed by centrifugation and incubation at 37°C for 10 minutes. […] 5 µL/well of Eu-cAMP (diluted with Detection buffer) was added to the corresponding experimental wells. 5 µL/well of ULight™-anti-cAMP antibody (diluted with Detection buffer) was added to the corresponding experimental wells, followed by centrifugation and incubation at room temperature for 1 hour. After the incubation was completed, the readings at 665 nm and 620 nm under 330 nm excitation were detected using the HTS high-throughput drug screening multifunctional microplate reader (BMG, PHERAstar FSX). The IC50 values were calculated by fitting nonlinear regression (dose response - variable slope) using GraphPad Prism software.
# T1 sequence (Q92633 whole entry): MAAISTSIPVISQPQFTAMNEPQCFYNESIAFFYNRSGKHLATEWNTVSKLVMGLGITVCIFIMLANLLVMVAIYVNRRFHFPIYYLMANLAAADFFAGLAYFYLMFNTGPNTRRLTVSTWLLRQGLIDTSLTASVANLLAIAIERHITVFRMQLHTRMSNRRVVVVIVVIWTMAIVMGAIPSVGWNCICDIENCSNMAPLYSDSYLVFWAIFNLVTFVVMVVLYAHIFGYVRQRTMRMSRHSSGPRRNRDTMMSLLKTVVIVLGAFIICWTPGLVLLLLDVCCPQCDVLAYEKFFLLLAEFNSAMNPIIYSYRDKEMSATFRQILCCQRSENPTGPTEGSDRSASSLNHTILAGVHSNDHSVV
row,SMILES,IC50
1,CCCCN(C)C(=O)OCc1c(-c2ccc(C#CC3(CC(=O)O)CC(F)(F)C3)c(C)n2)nnn1C [compound 109],23.9 nM
2,CCCCN(C)C(=O)OCc1c(-c2ccc(C#CC3(CC(=O)O)CC(OC)C3)c(C)n2)nnn1C (stereo not shown) [compound 113],19.6 nM
3,CCOc1ccnc(NCc2c(-c3ccc(C#CC4(CC(=O)O)CC4)c(C)n3)nnn2C)n1 [compound 118],83.9 nM
4,"CCC(F)(F)[C@@H](C)OC(=O)Nc1c(-c2ccc(C#CC3(CC(=O)O)CC3)c(C(F)(F)F)n2)nnn1C [compound 208, (R)-2-(1-((6-(5-((((3,3-difluoropentan-2-yl)oxy)carbonyl)amino)-1-methyl-1H-1,2,3-triazol-4-yl)-2-(trifluoromethyl)pyridin-3-yl)ethynyl)cyclopropyl)acetic acid]",44.1 nM
5,CCc1nc(-c2nnn(C)c2NC(=O)O[C@H](C)C(F)(F)CC)ccc1C#CC1(CC(=O)O)CC1 [compound 233],163 nM
6,CCC(F)(F)[C@@H](C)OC(=O)Nc1c(C)noc1-c1ccc(C#CC2(CC(=O)O)CC2)c(C)n1 [compound 277],26.6 nM
7,Cc1nc(-c2nnn(C)c2NC(=O)OC(C)C23CC(C2)C3)ccc1C#C[C@@H]1C[C@H]1C(=O)O (stereo partly shown) [compound 294],195 nM
8,Cc1nc(-c2nnn(C)c2NC(=O)OC(C)C23CC(C2)C3)ccc1C#C[C@@H]1CC[C@H]1C(=O)O (stereo partly shown) [compound 296],83.8 nM
9,Cc1nc(-c2nnn(C)c2NC(=O)O[C@H](C)CC(C)C)ccc1C#C[C@@H]1CC(F)(F)C[C@H]1C(=O)O [compound 299],13.6 nM
10,CCC[C@@H](C)OC(=O)Nc1c(-c2ccc(C#C[C@@H]3CC(F)(F)C[C@H]3C(=O)O)c(C)n2)nnn1C [compound 304],134 nM
11,CCC[C@@H](C)OC(=O)Nc1c(-c2ccc(C#C[C@@H]3CCC[C@H]3C(=O)O)c(C)n2)nnn1C [compound 305],91.2 nM
12,CCC(F)(F)[C@@H](C)OC(=O)Nc1c(-c2ccc(C#CC3(CC(=O)O)CCC3)c(C)n2)nnn1C [compound 323],14.8 nM
13,Cc1nc(-c2noc(C)c2NC(=O)O[C@H](C)CC(C)(F)F)ccc1C#CC1(CC(=O)O)CC1 [compound 334],107 nM
14,CCC(F)(F)[C@@H](C)OC(=O)Nc1c(C)noc1-c1ccc(C#CC2(CC(=O)O)CC2)c(CF)n1 [compound 335],113 nM
15,Cc1nc(-c2nnn(C)c2NC(=O)O[C@H](C)c2ccccc2)ccc1C#C[C@@H]1CCC[C@H]1C(=O)O [compound 402],47.2 nM
16,Cc1nc(-c2nnn(C)c2NC(=O)O[C@H](C)C23CC(C2)C3)ccc1C#CC1(CC(=O)O)CC(F)(F)C1 [compound 432],16.6 nM
17,CCC(F)(F)[C@@H](C)OC(=O)Nc1c(-c2ccc(C#CC3(CC(=O)O)CC4(CC4)C3)c(C)n2)nnn1C [compound 449],5.6 nM
18,CCC(F)(F)[C@@H](C)OC(=O)Nc1c(-c2ccc(C#CC3(CC(=O)O)CC(OC)C3)c(Cl)n2)nnn1C (stereo partly shown) [compound 461],23.4 nM
19,COC1CC(C#Cc2ccc(-c3nnn(C)c3NC(=O)O[C@H](C)c3ccccc3)nc2C)(CC(=O)O)C1 (stereo partly shown) [compound 464],23.6 nM
20,COC1CC(C#Cc2ccc(-c3nnn(C)c3NC(=O)O[C@H](C)c3ccccc3Cl)nc2C)(CC(=O)O)C1 (stereo partly shown) [compound 465],30.9 nM
21,CCc1nc(-c2nnn(C)c2NC(=O)O[C@H](C)CC(C)(F)F)ccc1C#CC1(CC(=O)O)CC(OC)C1 (stereo partly shown) [compound 476],76.5 nM
22,CCC[C@@H](C)OC(=O)Nc1c(-c2ccc(C#CC3(CC(=O)O)CC4(CC4)C3)c(C)n2)nnn1C [compound 478],2.1 nM
23,CCC(F)(F)[C@@H](C)OC(=O)Nc1c(C)noc1-c1ccc(C#C[C@@H]2CC[C@H]2C(=O)O)c(C)n1 [compound 486],34.1 nM
24,CCC(F)(F)[C@@H](C)OC(=O)Nc1c(C)noc1-c1ccc(C#CC2(CC(=O)O)CC(OC)C2)c(C)n1 (stereo partly shown) [compound 488],51.5 nM
25,CCC(F)(F)[C@@H](C)OC(=O)Nc1c(-c2ccc(C#CC3(CC(=O)O)CC(OC)C3)c(C(F)(F)F)n2)noc1C (stereo partly shown) [compound 493],8.5 nM
26,C[C@H](CC(C)(F)F)OC(=O)Nc1c(-c2ccc(C#CC3(CC(=O)O)CC4(CC4)C3)c(C(F)(F)F)n2)nnn1C [compound 498],6 nM
27,CCC(F)(F)[C@@H](C)OC(=O)Nc1c(-c2ccc(C#CC3(CC(=O)O)CC4(CC4)C3)c(Cl)n2)nnn1C [compound 503],8.5 nM
28,CCC(F)(F)[C@@H](C)OC(=O)Nc1c(-c2ccc(C#Cc3cc(C(F)(F)F)ncc3C(=O)O)c(C)n2)nnn1C [compound 513],26.5 nM

# The next lines start with the values.
row,IC50,SMILES
1,9.2 nM,CCCCN(C)C(=O)OCc1c(-c2ccc(C#CC3(CC(=O)O)CC(OCC)C3)c(C)n2)nnn1C (stereo not shown) [compound 114]
2,8.3 nM,CCCN(C)C(=O)OCc1c(-c2ccc(C#CC3(CC(=O)O)CC4(CC4)C3)c(C)n2)nnn1C [compound 115]
3,72.2 nM,Cc1nc(-c2nnn(C)c2NC(=O)O[C@H](C)CC2CC2)ccc1C#C[C@@H]1CC[C@H]1C(=O)O [compound 248]
4,190 nM,Cc1nc(-c2nnn(C)c2NC(=O)O[C@H](C)CC(C)C)ccc1C#C[C@@H]1C[C@H]1C(=O)O [compound 290]
5,83.9 nM,Cc1nc(-c2onc(C)c2NC(=O)O[C@H](C)CC(C)(F)F)ccc1C#C[C@@H]1CC[C@H]1C(=O)O [compound 340]
6,59 nM,CCC[C@@H](C)OC(=O)Nc1c(-c2ccc(C#CC3(CC(=O)O)CC(OCC)C3)c(C)n2)nnn1C (stereo partly shown) [compound 427]
7,63.2 nM,CCOC1CC(C#Cc2ccc(-c3nnn(C)c3NC(=O)O[C@H](C)CC(C)(F)F)nc2C)(CC(=O)O)C1 (stereo partly shown) [compound 430]
8,6.8 nM,Cc1nc(-c2nnn(C)c2NC(=O)O[C@H](C)CC(C)(F)F)ccc1C#CC1(CC(=O)O)CC2(CC2)C1 [compound 448]
9,25.5 nM,COC1CC(C#Cc2ccc(-c3nnn(C)c3NC(=O)O[C@H](C)c3ccccc3F)nc2C)(CC(=O)O)C1 (stereo partly shown) [compound 466]
10,16.5 nM,CCOC1CC(C#Cc2ccc(-c3nnn(C)c3NC(=O)O[C@H](C)C(F)(F)CC)nc2Cl)(CC(=O)O)C1 (stereo partly shown) [compound 467]
11,24.1 nM,CCC(F)(F)[C@@H](C)OC(=O)Nc1c(-c2ccc(C#CC3(CC(=O)O)CC(OC)C3)c(Cl)n2)noc1C (stereo partly shown) [compound 470]
12,33.6 nM,CCC(F)(F)[C@@H](C)OC(=O)Nc1c(C)noc1-c1ccc(C#CC2(CC(=O)O)CC(OC)C2)c(Cl)n1 (stereo partly shown) [compound 471]
13,167 nM,"CCC(F)(F)[C@@H](C)OC(=O)Nc1c(-c2ccc(C#Cc3ccncc3C(=O)O)c(C)n2)nnn1C [compound 474, (R)-4-((6-(5-((((3,3-difluoropentan-2-yl)oxy)carbonyl)amino)-1-methyl-1H-1,2,3-triazol-4-yl)-2-methylpyridin-3-yl)ethynyl)nicotinic acid]"
14,52.3 nM,CCC(F)(F)[C@@H](C)OC(=O)Nc1c(C)noc1-c1ccc(C#C[C@@H]2CCC[C@H]2C(=O)O)c(C)n1 [compound 485]
15,35.2 nM,CCC(F)(F)[C@@H](C)OC(=O)Nc1c(C)noc1-c1ccc(C#C[C@@H]2CC(F)(F)C[C@H]2C(=O)O)c(C)n1 [compound 487]
16,14.1 nM,CCOC1CC(C#Cc2ccc(-c3nnn(C)c3NC(=O)O[C@H](C)C(F)(F)CC)nc2CC)(CC(=O)O)C1 (stereo partly shown) [compound 489]
17,8.6 nM,CCOC1CC(C#Cc2ccc(-c3nnn(C)c3NC(=O)O[C@H](C)C(F)(F)CC)nc2C(F)(F)F)(CC(=O)O)C1 (stereo partly shown) [compound 490]
18,27.1 nM,CCC(F)(F)[C@@H](C)OC(=O)Nc1c(-c2ccc(C#CC3(CC(=O)O)CC(OC)C3)c(F)n2)noc1C (stereo partly shown) [compound 491]
19,11.5 nM,CCC(F)(F)[C@@H](C)OC(=O)Nc1c(-c2ccc(C#CC3(CC(=O)O)CC4(CC4)C3)c(C(F)(F)F)n2)nnn1C [compound 499]
20,4.5 nM,CCc1nc(-c2nnn(C)c2NC(=O)O[C@H](C)CC(C)(F)F)ccc1C#CC1(CC(=O)O)CC2(CC2)C1 [compound 500]
21,7.2 nM,C[C@H](CC(C)(F)F)OC(=O)Nc1c(-c2ccc(C#CC3(CC(=O)O)CC4(CC4)C3)c(Cl)n2)nnn1C [compound 502]
22,6.4 nM,CCc1nc(-c2nnn(C)c2NC(=O)O[C@H](C)C(F)(F)CC)ccc1C#CC1(CC(=O)O)CC2(CC2)C1 [compound 504]
23,4 nM,"CCC[C@@H](C)OC(=O)Nc1c(-c2ccc(C#CC3(CS(=O)(=O)O)CC4(CC4)C3)c(C)n2)nnn1C [compound 508, (R)-(5-((2-methyl-6-(1-methyl-5-(((pentan-2-yloxy)carbonyl)amino)-1H-1,2,3-triazol-4-yl)pyridin-3-yl)ethynyl)spiro[2.3]hexan-5-yl)methanesulfonic acid]"
24,32.1 nM,CCC[C@@H](C)OC(=O)Nc1c(-c2ccc(C#CC3(P(=O)(O)O)CC4(CC4)C3)c(C)n2)nnn1C [compound 510]
